Our source for the MIC and CC50 values is ChEMBL document CHEMBL5543097, “Synthesis and structure-activity relationships of novel 14-membered 2-fluoro ketolides with structural modification at the C11 position” (Eur J Med Chem, 2024).

Converted amounts (≈) assume the structure as drawn.

In general, CC50 refers to the concentration giving 50% cytotoxicity.

The subject of data set [1] is Staphylococcus epidermidis. Briefly: Antibacterial activity against erythromycin-resistant Staphylococcus epidermidis 19-8 assessed as inhibition of visible bacterial growth incubated for 18 hrs by broth microdilution method. The format is functional. On the technique in general: Dilution methods test growth across graded concentrations, often in twofold steps.
Data set [2] is described as follows: Cytotoxicity against mouse AML12 cells assessed as reduction in cell viability incubated for 48 hrs by MTT assay. The format is toxicity, cell-based. A general note: Tetrazolium assays rely on reduction of a dye to a coloured formazan, in cell work by metabolically active cells.
Data set [3] concerns Staphylococcus epidermidis. Briefly: Antibacterial activity against erythromycin-resistant Staphylococcus epidermidis 19-4 assessed as inhibition of visible bacterial growth incubated for 18 hrs by broth microdilution method. The format is functional.
In data set [4] the test system is Staphylococcus epidermidis. The experiment in a line: Antibacterial activity against erythromycin-resistant Staphylococcus epidermidis 19-6 assessed as inhibition of visible bacterial growth incubated for 18 hrs by broth microdilution method. It is filed as functional.
For data set [5], the system named is Staphylococcus epidermidis. The experiment in a line: Antibacterial activity against erythromycin-resistant Staphylococcus epidermidis 19-9 assessed as inhibition of visible bacterial growth incubated for 18 hrs by broth microdilution method. The format is functional.
The subject of data set [6] is Streptococcus agalactiae. The experiment in a line: Antibacterial activity against erythromycin-resistant Streptococcus agalactiae 19-9 assessed as inhibition of visible bacterial growth incubated for 18 hrs by broth microdilution method. It is filed as functional.
Data set [7] deals with Streptococcus pneumoniae. The experiment in a line: Antibacterial activity against erythromycin-resistant Streptococcus pneumoniae SPN19-13 assessed as inhibition of visible bacterial growth incubated for 18 hrs by broth microdilution method. It is filed as functional.
Data set [8] relates to Streptococcus pyogenes. Briefly: Antibacterial activity against erythromycin-resistant Streptococcus pyogenes ATCC 19615 assessed as inhibition of visible bacterial growth incubated for 18 hrs by broth microdilution method. It is filed as functional.
Data set [9] has as its system Haemophilus influenzae. Briefly: Antibacterial activity against Haemophilus influenzae HIN 19-15 assessed as inhibition of bacterial growth incubated for 20 to 24 hrs by CLSI based broth microdilution method. The format is functional. As to conditions: time 20-24 hrs.
Data set [10] deals with Streptococcus agalactiae. The experiment in a line: Antibacterial activity against erythromycin-resistant Streptococcus agalactiae 19-8 assessed as inhibition of visible bacterial growth incubated for 18 hrs by broth microdilution method. The format is functional.
In data set [11] the test system is Streptococcus pneumoniae. The experiment in a line: Antibacterial activity against erythromycin-resistant Streptococcus pneumoniae SPN19-14 assessed as inhibition of visible bacterial growth incubated for 18 hrs by broth microdilution method. It is filed as functional.
The test system of data set [12] is Staphylococcus epidermidis. Briefly: Antibacterial activity against erythromycin-resistant Staphylococcus epidermidis 19-11 assessed as inhibition of visible bacterial growth incubated for 18 hrs by broth microdilution method. The format is functional.
The subject of data set [13] is Streptococcus pneumoniae. Briefly: Antibacterial activity against erythromycin-resistant Streptococcus pneumoniae SPN19-8 assessed as inhibition of visible bacterial growth incubated for 18 hrs by broth microdilution method. The format is functional.
Data set [14] has as its system Staphylococcus epidermidis. The experiment in a line: Antibacterial activity against erythromycin-resistant Staphylococcus epidermidis 19-5 assessed as inhibition of visible bacterial growth incubated for 18 hrs by broth microdilution method. The format is functional.
Data set [15] has as its system Moraxella catarrhalis. Briefly: Antibacterial activity against Moraxella catarrhalis BCA 19-31 assessed as inhibition of bacterial growth incubated for 24 hrs by CLSI based broth microdilution method. It is filed as functional. As to conditions: BCA 19-31, 24 h.
In data set [16] the test system is Haemophilus influenzae. Briefly: Antibacterial activity against Haemophilus influenzae HIN 19-18 assessed as inhibition of bacterial growth incubated for 20 to 24 hrs by CLSI based broth microdilution method. It is filed as functional. Conditions: HIN 19-18, time 20-24 hrs.
Data set [17] relates to Moraxella catarrhalis. The experiment in a line: Antibacterial activity against Moraxella catarrhalis BCA 19-5 assessed as inhibition of bacterial growth incubated for 24 hrs by CLSI based broth microdilution method. Conditions: Moraxella catarrhalis, BCA 19-5, 24 h, read-out: MIC. The format is functional.
In data set [18] the test system is Moraxella catarrhalis. Briefly: Antibacterial activity against Moraxella catarrhalis BCA 19-6 assessed as inhibition of bacterial growth incubated for 24 hrs by CLSI based broth microdilution method. It is filed as functional. Conditions: Moraxella catarrhalis, BCA 19-6, 24 h, read-out: MIC.

Consider `CC[C@H]1OC(=O)[C@H](C)C(=O)[C@H](C)[C@@H](O[C@@H]2O[C@H](C)C[C@H](N(C)C)[C@H]2O)[C@](C)(OC)C[C@@H](C)C(=O)[C@H](C)[C@H]2N(CCCOC(=O)Nc3ccc(C(F)(F)F)cc3)C(=O)O[C@]12C`, for which the MIC was 0.06 µg/mL (≈ 0.0699 µM) in data set [1]; 0.125 µg/mL (≈ 0.146 µM) in data set [3]; 0.25 µg/mL (≈ 0.291 µM) in [4]; 0.5 µg/mL (≈ 0.583 µM) in [5]; 0.5 µg/mL (≈ 0.583 µM) in data set [6]; 0.125 µg/mL (≈ 0.146 µM) in data set [7]. In addition, the MIC in data set [8] is < 0.03 µg/mL; in data set [9], 4 µg/mL (≈ 4.66 µM); in [10] it was < 0.03 µg/mL; in [11], 0.125 µg/mL (≈ 0.146 µM); in [12], 0.125 µg/mL (≈ 0.146 µM); in data set [13], 0.125 µg/mL (≈ 0.146 µM). Also, the MIC in data set [14] and in [15] was 0.06 µg/mL (≈ 0.0699 µM) in each case. Moreover, the CC50 at 48 h in data set [2] was determined as 73.8 µM.

With `CC[C@H]1OC(=O)[C@@](C)(F)C(=O)[C@H](C)[C@@H](O[C@@H]2O[C@H](C)C[C@H](N(C)C)[C@H]2O)[C@](C)(OC)C[C@@H](C)C(=O)[C@H](C)[C@H]2N(CCCOC(=O)Nc3cc(C)cc(C)c3)C(=O)O[C@]12C`, the MIC is 16 µg/mL (≈ 19.1 µM) in data set [16]; 0.25 µg/mL (≈ 0.299 µM) in data set [1]; < 0.25 µg/mL in [3]; 0.5 µg/mL (≈ 0.598 µM) in [4]; 0.5 µg/mL (≈ 0.598 µM) in data set [5]; 4 µg/mL (≈ 4.78 µM) in data set [6]. Also, the MIC is 1 µg/mL (≈ 1.2 µM) in data set [17]; 0.5 µg/mL (≈ 0.598 µM) in [7]; < 0.03 µg/mL in [8]; 16 µg/mL (≈ 19.1 µM) in data set [9]; 0.06 µg/mL (≈ 0.0718 µM) in data set [10]; 1 µg/mL (≈ 1.2 µM) in data set [11]. Also, the MIC was 0.25 µg/mL (≈ 0.299 µM) in [12]; 0.5 µg/mL (≈ 0.598 µM) in [13]; < 0.03 µg/mL in data set [14]; 1 µg/mL (≈ 1.2 µM) in [18]; 0.5 µg/mL (≈ 0.598 µM) in data set [15]. The CC50 at 48 h in data set [2] was determined as 25.5 µM.

As to `CC[C@H]1OC(=O)[C@H](C)C(=O)[C@H](C)[C@@H](O[C@@H]2O[C@H](C)C[C@H](N(C)C)[C@H]2O)[C@](C)(OC)C[C@@H](C)C(=O)[C@H](C)[C@H]2N(CCCOC(=O)Nc3ccc(C)cc3)C(=O)O[C@]12C`, the MIC is 32 µg/mL (≈ 39.8 µM) in data set [16]; < 0.03 µg/mL in data set [1]; 0.125 µg/mL (≈ 0.155 µM) in [3]; 0.125 µg/mL (≈ 0.155 µM) in data set [4]; 0.5 µg/mL (≈ 0.622 µM) in data set [5]; 1 µg/mL (≈ 1.24 µM) in data set [6]. Further, the MIC in [17] was 0.125 µg/mL (≈ 0.155 µM); in [7], 0.25 µg/mL (≈ 0.311 µM); in data set [8], < 0.03 µg/mL; in data set [9], 32 µg/mL (≈ 39.8 µM); in data set [10], < 0.03 µg/mL; in data set [11], 0.25 µg/mL (≈ 0.311 µM). For the same compound, the MIC in data set [12] was determined as 0.125 µg/mL (≈ 0.155 µM); in [13], 0.5 µg/mL (≈ 0.622 µM); in [14], 0.125 µg/mL (≈ 0.155 µM); in data set [18], 0.25 µg/mL (≈ 0.311 µM); in data set [15] it was 1 µg/mL (≈ 1.24 µM). Moreover, the CC50 at 48 h in data set [2] was 20.8 µM.

As to `CC[C@H]1OC(=O)[C@H](C)C(=O)[C@H](C)[C@@H](O[C@@H]2O[C@H](C)C[C@H](N(C)C)[C@H]2O)[C@](C)(OC)C[C@@H](C)C(=O)[C@H](C)[C@H]2N(CCCOC(=O)Nc3cccc(C)c3)C(=O)O[C@]12C`, the MIC in data set [16] came out at 32 µg/mL (≈ 39.8 µM); in data set [1], 0.5 µg/mL (≈ 0.622 µM); in [3], 2 µg/mL (≈ 2.49 µM); in data set [4], 0.5 µg/mL (≈ 0.622 µM); in [5], 1 µg/mL (≈ 1.24 µM); in data set [6], 0.5 µg/mL (≈ 0.622 µM). Also, the MIC was 0.5 µg/mL (≈ 0.622 µM) in data set [17]; 1 µg/mL (≈ 1.24 µM) in data set [7]; < 0.03 µg/mL in [8]; 32 µg/mL (≈ 39.8 µM) in data set [9]; < 0.03 µg/mL in [10]; 1 µg/mL (≈ 1.24 µM) in data set [11]. Moreover, the MIC worked out at 0.5 µg/mL (≈ 0.622 µM) in data set [12]; 1 µg/mL (≈ 1.24 µM) in [13]; 0.5 µg/mL (≈ 0.622 µM) in data set [14]; 0.5 µg/mL (≈ 0.622 µM) in data set [18]; 1 µg/mL (≈ 1.24 µM) in [15]. In data set [2], the CC50 at 48 h worked out at 71.7 µM.

For `CC[C@H]1OC(=O)[C@@](C)(F)C(=O)[C@H](C)[C@@H](O[C@@H]2O[C@H](C)C[C@H](N(C)C)[C@H]2O)[C@](C)(OC)C[C@@H](C)C(=O)[C@H](C)[C@H]2N(CCCOC(=O)Nc3ccccc3OC)C(=O)O[C@]12C`, the MIC in [1] is 0.06 µg/mL (≈ 0.0716 µM); in [3], 0.06 µg/mL (≈ 0.0716 µM); in [4], 0.125 µg/mL (≈ 0.149 µM); in data set [5] it was 0.25 µg/mL (≈ 0.298 µM); in data set [6], 0.5 µg/mL (≈ 0.597 µM); in data set [17] it was 11.1 µg/mL (≈ 13.2 µM). Besides, the MIC in data set [7] is 0.125 µg/mL (≈ 0.149 µM); in [8], < 0.03 µg/mL; in data set [9], 8 µg/mL (≈ 9.55 µM); in data set [10], < 0.03 µg/mL; in [11], 0.125 µg/mL (≈ 0.149 µM); in [12] it was 0.125 µg/mL (≈ 0.149 µM). The MIC in data set [13] came to 0.125 µg/mL (≈ 0.149 µM); in data set [14] it was 0.06 µg/mL (≈ 0.0716 µM); in [18] it was 0.41 µg/mL (≈ 0.489 µM); in data set [15], 0.125 µg/mL (≈ 0.149 µM). Besides, the CC50 at 48 h in data set [2] was determined as 83.8 µM.
